Tests used:
Type in all cases: biochemical
[1] = target: T1, HDAC6 (Homo sapiens, UniProt Q9UBN7); test: Human HDAC enzyme inhibitor Fluor-de-Lys assay, HDAC6; settings: HDAC6, Fluor-de-Lys assay
T1 sequence (Q9UBN7 1-1215): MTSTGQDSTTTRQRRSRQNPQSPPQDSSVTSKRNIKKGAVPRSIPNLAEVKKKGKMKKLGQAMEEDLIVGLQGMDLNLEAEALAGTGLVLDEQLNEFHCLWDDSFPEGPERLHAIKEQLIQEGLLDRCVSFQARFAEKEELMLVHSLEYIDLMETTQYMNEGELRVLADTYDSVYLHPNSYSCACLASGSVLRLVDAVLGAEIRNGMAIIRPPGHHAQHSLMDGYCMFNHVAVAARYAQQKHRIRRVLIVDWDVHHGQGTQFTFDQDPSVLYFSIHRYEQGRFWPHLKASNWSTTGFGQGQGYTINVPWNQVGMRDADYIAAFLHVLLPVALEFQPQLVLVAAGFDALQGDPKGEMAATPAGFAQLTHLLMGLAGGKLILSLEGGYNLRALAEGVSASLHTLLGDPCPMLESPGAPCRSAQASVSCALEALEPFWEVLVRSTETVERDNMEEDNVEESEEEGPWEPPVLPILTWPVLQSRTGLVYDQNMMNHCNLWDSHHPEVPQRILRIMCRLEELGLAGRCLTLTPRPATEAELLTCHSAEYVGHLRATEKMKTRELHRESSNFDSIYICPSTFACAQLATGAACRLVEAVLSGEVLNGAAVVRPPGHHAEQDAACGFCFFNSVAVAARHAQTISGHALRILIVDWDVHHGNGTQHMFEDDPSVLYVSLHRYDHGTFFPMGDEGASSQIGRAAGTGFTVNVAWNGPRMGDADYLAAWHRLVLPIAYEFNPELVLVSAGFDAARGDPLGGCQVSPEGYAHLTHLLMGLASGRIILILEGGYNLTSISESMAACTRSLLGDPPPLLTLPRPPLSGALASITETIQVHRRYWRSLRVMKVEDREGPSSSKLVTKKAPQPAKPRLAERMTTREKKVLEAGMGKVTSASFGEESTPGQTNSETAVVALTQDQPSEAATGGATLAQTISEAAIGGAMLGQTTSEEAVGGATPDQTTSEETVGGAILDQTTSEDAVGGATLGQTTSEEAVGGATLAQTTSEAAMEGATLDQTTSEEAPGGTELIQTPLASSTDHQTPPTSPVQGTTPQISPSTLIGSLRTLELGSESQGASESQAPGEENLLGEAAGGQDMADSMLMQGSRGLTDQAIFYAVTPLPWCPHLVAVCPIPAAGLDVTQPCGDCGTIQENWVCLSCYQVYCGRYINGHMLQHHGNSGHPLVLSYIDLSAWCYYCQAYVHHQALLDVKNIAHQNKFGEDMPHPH

[2] = target: T2, Recombinant human HDAC8 (Homo sapiens, UniProt Q9BY41); test: Human HDAC enzyme inhibitor Fluor-de-Lys assay, HDAC8; settings: recombinant human HDAC8, Fluor-de-Lys assay
T2 construct: purchased Enzo Life Sciences BML-SE145-0100
T2 sequence (Q9BY41 1-377): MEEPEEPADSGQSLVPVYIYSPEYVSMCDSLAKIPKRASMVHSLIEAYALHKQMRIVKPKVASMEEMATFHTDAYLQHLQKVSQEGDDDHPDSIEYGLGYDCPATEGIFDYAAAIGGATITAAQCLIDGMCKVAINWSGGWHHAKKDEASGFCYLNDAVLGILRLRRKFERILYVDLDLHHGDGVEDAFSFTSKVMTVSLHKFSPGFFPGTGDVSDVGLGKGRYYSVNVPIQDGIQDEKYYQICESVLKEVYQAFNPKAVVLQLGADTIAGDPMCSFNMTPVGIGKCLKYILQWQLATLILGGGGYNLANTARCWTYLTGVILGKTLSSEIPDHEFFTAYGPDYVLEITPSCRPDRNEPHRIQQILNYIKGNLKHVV

[3] = target: T3, Recombinant human HDAC2 (Homo sapiens, UniProt Q92769); test: Human HDAC enzyme inhibitor Fluor-de-Lys assay, HDAC2; settings: recombinant human HDAC2, Fluor-de-Lys assay
T3 construct: Full length human HDAC2-FLAG was expressed in baculovirus infected Sf9 cells; FLAG (C); made in house; host or cells: Sf9 (baculovirus)
T3 sequence (Q92769 whole entry): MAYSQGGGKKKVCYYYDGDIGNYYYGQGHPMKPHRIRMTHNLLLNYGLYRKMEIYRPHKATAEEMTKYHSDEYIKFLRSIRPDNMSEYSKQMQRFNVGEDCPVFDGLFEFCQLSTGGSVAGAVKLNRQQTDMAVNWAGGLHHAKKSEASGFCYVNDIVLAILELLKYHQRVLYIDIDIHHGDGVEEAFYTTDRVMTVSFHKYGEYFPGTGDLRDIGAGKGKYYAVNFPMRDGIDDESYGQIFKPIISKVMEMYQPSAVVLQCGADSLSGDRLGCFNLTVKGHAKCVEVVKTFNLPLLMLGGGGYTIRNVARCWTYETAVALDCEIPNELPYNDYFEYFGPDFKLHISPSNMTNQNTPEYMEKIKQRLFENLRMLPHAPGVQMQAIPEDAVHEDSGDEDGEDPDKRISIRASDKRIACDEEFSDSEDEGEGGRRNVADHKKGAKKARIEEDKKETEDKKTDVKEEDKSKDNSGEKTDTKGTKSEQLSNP
Procedure, shortened: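 Fluor-de-Lys format at room temperature (23° C.): compounds titrated 10-point, 1:3, preincubated with HDAC before substrate addition. Developer with excess HDAC inhibitor ends the reaction, and trypsin-liberated AMC fluorescence is the read-out.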

[4] = target: T4, Recombinant human HDAC1 (Homo sapiens, UniProt Q13547); test: Human HDAC enzyme inhibitor Fluor-de-Lys assay, HDAC1; settings: recombinant human HDAC1, Fluor-de-Lys assay
T4 construct: FLAG (C); made in house
T4 sequence (Q13547 whole entry): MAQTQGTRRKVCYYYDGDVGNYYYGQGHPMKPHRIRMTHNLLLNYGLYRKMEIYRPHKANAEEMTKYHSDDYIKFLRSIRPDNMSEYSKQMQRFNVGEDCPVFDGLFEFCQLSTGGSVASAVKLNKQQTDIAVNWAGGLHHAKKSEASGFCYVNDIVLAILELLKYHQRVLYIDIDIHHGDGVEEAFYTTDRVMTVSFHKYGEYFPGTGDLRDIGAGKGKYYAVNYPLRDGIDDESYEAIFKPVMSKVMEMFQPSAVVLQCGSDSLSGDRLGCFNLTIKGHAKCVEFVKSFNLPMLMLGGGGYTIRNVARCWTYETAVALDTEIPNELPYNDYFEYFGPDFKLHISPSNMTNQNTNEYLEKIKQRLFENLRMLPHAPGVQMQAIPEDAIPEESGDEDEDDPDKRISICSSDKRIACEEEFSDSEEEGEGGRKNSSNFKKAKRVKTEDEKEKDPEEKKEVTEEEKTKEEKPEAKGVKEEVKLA
Procedure, shortened: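 Fluor-de-Lys format at room temperature (23° C.): compounds titrated 10-point, 1:3, preincubated with HDAC before substrate addition; HDAC1 run at 0.3 nM enzyme with 20 μM BML-KI104. Developer with excess HDAC inhibitor ends the reaction, and trypsin-liberated AMC fluorescence is the read-out.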

SMILES | IC50 [1] [µM] | IC50 [2] [µM] | IC50 [3] [µM] | IC50 [4] [µM]
CCC(=O)CCCCC[C@H](NC(=O)C1CC12CCOCC2)c1ncc(-c2cc3ccc(C)nc3cc2OC)o1 (single isomer, unassigned) [Compound 410] | > 0.9 | > 0.9 | 0.143 | 0.0175
CCC(=O)CCCCC[C@H](NC(=O)C1=NOC2(CCN(C)CC2)C1)c1ncc(-c2cc3ccc(N(C)C)nc3cc2OC)o1 [Compound 397] | > 0.9 | > 0.9 | 0.0066 | 0.00136
CCC(=O)CCCCC[C@H](NC(=O)C1=NOC2(CCN(C(=O)OC)CC2)C1)c1ncc(-c2ccccc2)[nH]1 [Compound 381] | 32.3 | 7.47 | 0.637 | 0.179
CCC(=O)CCCCC[C@H](NC(=O)[C@H]1CC[C@@]2(CC1)OC(=O)c1cccnc12)c1nnc(-c2cc3ccccc3nc2OC)o1 [Compound 366] | 2.76 | > 45 | 0.321 | 0.0894
CCC(=O)CCCCC[C@H](NC(=O)CCN1C(=O)C(CC)=NC12CCOCC2)c1ncc(-c2ccccc2)[nH]1 [Compound 384] | 10.3 | 8.93 | 0.154 | 0.0373
CCC(=O)CCCCC[C@H](NC(=O)C1=NOC2(CCN(S(C)(=O)=O)CC2)C1)c1nnc(-c2cc3ccccc3nc2OC)o1 [Compound 371] | 4.66 | > 45 | 0.287 | 0.0867
CCCC(=O)CCCCC[C@H](N)c1ncc(-c2cc3ccc(C)nc3cc2OC)[nH]1 [Compound A30] | > 0.9 | 0.542 | 0.304 | 0.0606
CCCC(=O)CCCCC[C@H](NC(=O)[C@H]1CC12CCN(CC1CC1)CC2)c1ncc(-c2cc3ccc(C)nc3cc2OC)[nH]1 [Compound 416] | > 0.9 | > 0.9 | 0.0045 | < 0.00158
CCC(=O)CCCCC[C@H](NCC1CC1)c1ncc(-c2cc3ccc(C)nc3cc2OC)[nH]1 [Compound 398, (S)-9-((cyclopropylmethyl)amino)-9-(5-(7-methoxy-2-methylquinolin-6-yl)-1H-imidazol-2-yl)nonan-3-one] | > 0.9 | > 0.9 | 0.81 | 0.186
CCC(=O)CCCCC[C@H](NC(=O)[C@H]1CC[C@@]2(CC1)OC(=O)c1cnccc12)c1ncc(-c2ccccc2)[nH]1 [Compound 373] | 10.1 | 6.67 | 0.423 | 0.0956
CCC(=O)CCCCC[C@H](NCc1ccncc1)c1ncc(-c2cc3ccc(C)nc3cc2OC)[nH]1 [Compound 404] | > 0.9 | > 0.9 | > 0.9 | 0.367
CCC(=O)CCCCC[C@H](NC(=O)[C@H]1CC[C@@]2(CC1)OC(=O)c1ccncc12)c1ncc(-c2ccccc2)[nH]1 [Compound 372] | 10.2 | 7.73 | 0.416 | 0.0925
CCC(=O)CCCCC[C@H](NC(=O)C1=NOC2(CCN(C)CC2)C1)c1ncc(-c2ccc(-c3ccccn3)cc2OC)o1 [Compound 391] | > 0.9 | > 0.9 | 0.0745 | 0.00957
CCC(=O)CCCCC[C@H](NCC1CN(C)C1)c1ncc(-c2cc3ccc(C)nc3cc2OC)o1 [Compound 401, (9S)-9-[5-(7-methoxy-2-methylquinolin-6-yl)-1,3-oxazol-2-yl]-9-{[(1-methylazetidin-3-yl)methyl]amino}nonan-3-one] | > 0.9 | > 0.9 | 0.179 | 0.0321
CCC(=O)CCCCC[C@H](NC(=O)C1=NOC2(CCN(CC3CC3)CC2)C1)c1ncc(-c2cc3ccc(=O)n(C)c3cc2F)o1 [Compound 387] | > 0.9 | > 0.9 | 0.207 | 0.0258
CCC(=O)CCCCC[C@H](NC(=O)C1=NOC2(CCN(C)CC2)C1)c1ncc(-c2cc3ccc(=O)n(C)c3cc2F)o1 [Compound 386] | > 0.9 | > 0.9 | 0.0547 | 0.00782
CCC(=O)CCCCC[C@H](NC(=O)[C@H]1CC12CCN(C)CC2)c1ncc(-c2cc3ccc(N(C)C)nc3cc2OC)o1 [Compound 406] | > 0.9 | 0.3 | 0.0025 | 0.00083
